Results: US9133099B2, “Compounds and their salts specific to the PPAR receptors and the EGF receptors and their use in the medical field” (Nogra Pharma Limited, priority 2005, dated 2015)

Assays:
HT-115 cells = assay: Colon cancer cell growth, BrdU incorporation, HT-115 cells; format: cell-based, human; conditions: 0.5-10 mM, 48 hours
Protocol: (§1) FIG. 3 and FIG. 4: Effect of the specified substances on the proliferation of human colon carcinoma cell lines (i.e. HT29, HT 115 and DLDI). Cells were treated with increasing concentrations of substances (0.5-10 mM)) for 48 hours and the proliferation was determined by using a colorimetric assay for the measurement of BrdU incorporation. Optical density (OD) was determined at 450 nm using an ELISA reader.
(§2) The following substances (i e 20, 34, 35, 39 and 40) were tested for their ability to modulate colon cancer cell growth. For this purpose, three human colon carcinoma cell lines (i.e. HT-29, HT-115 and DLD-1) were used. These cell types were selected on the basis of the cyclooxigenase-2 (COX-2) expression. Indeed. HT-115 cells express a biologically active COX-2, HT-29 cells express a non-functional COX-2 isoform, and DLD-1 are COX-2-deficient cells. […]
(§3) Cell proliferation was determined by measuring the incorporation of 5-bromo-2′-deoxyuridine (BrdU) into DNA using a commercially available cell proliferation kit (Roche Diagnostics, Monza, Italy). BrdU was added to the cell cultures during the last 6 hours of incubation, and the level of BrdU-positive cells was assessed after 48 h culture by enzyme-linked immunosorbent assay (ELISA). Optical density (OD) was determined at 450 nm using an ELISA reader. […]

DLD-1 cells = assay: Colon cancer cell growth, BrdU incorporation, DLD-1 cells; format: cell-based, human; conditions: for effect on cell growth (in words) / inhibition at 500 µM / inhibition at 1000 µM / inhibition at 2500 µM / inhibition at 5000 µM / inhibition at 10000 µM: DLD-1 cells, 48 hours; for effect on cell growth (in words): 0.5-10 mM; for inhibition at 500 µM / inhibition at 1000 µM / inhibition at 2500 µM / inhibition at 5000 µM / inhibition at 10000 µM: Homo sapiens, BrdU; for inhibition at 500 µM: 0.5 mM; for inhibition at 1000 µM: 1 mM; for inhibition at 2500 µM: 2.5 mM; for inhibition at 5000 µM: 5 mM; for inhibition at 10000 µM / effect on cell growth at high doses (in words): 10 mM; for effect on cell growth at high doses (in words): differences among groups not statistically significant
Protocol: The following substances (i e 20, 34, 35, 39 and 40) were tested for their ability to modulate colon cancer cell growth. For this purpose, three human colon carcinoma cell lines (i.e. HT-29, HT-115 and DLD-1) were used. These cell types were selected on the basis of the cyclooxigenase-2 (COX-2) expression. Indeed. HT-115 cells express a biologically active COX-2, HT-29 cells express a non-functional COX-2 isoform, and DLD-1 are COX-2-deficient cells.
HT-29 and DLD-1 cells were cultured in McCoy and RPMI1640 media respectively, supplemented with 10% fetal bovine serum (FBS), 1% penicillin/streptomycin (P/S) and […] gentamycin. HT-115 were cultured in DMEM medium supplemented with 15% FBS and 1% P/S. Cells were maintained in a humidified Incubator at 37° C., in the presence of 5% CO2.
For cell growth assays, single-cell suspensions were plated at 2×10^3 cells/well (4×10^3 cells/well for HT115) in 96-well culture dishes in medium containing 0.5% FBS and allowed to adhere. The non-adherent cells were then removed, and fresh medium containing 0.5% FBS was added into each well. Cells were cultured in the presence or absence of the specified substances. Each substance was dissolved as a 25 mM stock solution in culture medium containing 0.5% FBS, and the pH of each stock solution was adjusted to 7.4, if necessary, with NaOH. Substances were used at a final concentration ranging from 0.5 to 10 mM.
Cell proliferation was determined by measuring the incorporation of 5-bromo-2′-deoxyuridine (BrdU) into DNA using a commercially available cell proliferation kit (Roche Diagnostics, Monza, Italy). BrdU was added to the cell cultures during the last 6 hours of incubation, and the level of BrdU-positive cells was assessed after 48 h culture by enzyme-linked immunosorbent assay (ELISA). Optical density (OD) was determined at 450 nm using an ELISA reader. Experiments were performed in triplicate and the results are reported as the mean t standard deviation (SD).
Cells were cultured in the presence or absence of the compounds, and cell growth was then assessed by the colorimetric (BrdU) assay after 48 hours culture.

HT-29 cells = assay: Colon cancer cell growth, BrdU incorporation, HT-29 cells; format: cell-based, human; conditions: 0.5-10 mM, 48 hours
Protocol: as §1, §2, §3

PPARγ = biological target: T1, PPARγ (Homo sapiens, UniProt P37231); assay: PPARγ transcriptional activity, renilla luciferase/PPRE reporter gene in transfected HT-29 cells; format: cell-based; conditions: 24 hours
T1 construct: transient transfections of epithelial cells with the renilla luciferase and PPRE plamids; endogenous in cells; host or cells: HT-29 human colon carcinoma cells
T1 sequence (P37231 1-505): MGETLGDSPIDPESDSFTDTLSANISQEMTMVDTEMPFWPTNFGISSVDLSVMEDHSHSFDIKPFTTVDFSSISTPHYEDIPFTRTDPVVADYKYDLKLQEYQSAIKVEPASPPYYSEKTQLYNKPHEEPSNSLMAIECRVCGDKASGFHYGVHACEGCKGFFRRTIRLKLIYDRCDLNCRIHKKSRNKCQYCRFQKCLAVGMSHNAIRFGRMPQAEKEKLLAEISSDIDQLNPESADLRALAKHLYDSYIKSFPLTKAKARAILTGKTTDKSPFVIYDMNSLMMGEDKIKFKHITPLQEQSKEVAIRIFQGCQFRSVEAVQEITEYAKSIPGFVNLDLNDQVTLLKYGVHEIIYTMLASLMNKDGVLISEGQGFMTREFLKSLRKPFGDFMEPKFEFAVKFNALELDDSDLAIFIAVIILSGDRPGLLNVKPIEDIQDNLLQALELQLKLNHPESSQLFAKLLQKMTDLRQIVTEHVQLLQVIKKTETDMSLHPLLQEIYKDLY
Protocol: Activation of PPARγ results in a cascade of reactions leading to a binding to specific DNA sequence elements termed peroxisome proliferator response elements (PPRE) (7-9).
We investigated PPARγ transcriptional activity by transient transfections of epithelial cells with the renilla luciferase and PPRE plamids. To evaluate if the new molecules have more efficacy than 5-ASA to stimulate PPARγ activation, we tested these molecules at a concentration of 1 mM. […] Cells were stimulated with the different molecules during 24 hours.
FIG. 2 represents all the results obtained for each molecule assessed in 2 or 3 experiments done in triplicate. Reproducibility between the different experiments is good and similar to data described in the literature.

SMILES | effect on cell growth (in words) (HT-115 cells) | effect on cell growth (in words) (DLD-1 cells) | inhibition at 500 µM (DLD-1 cells) [%] | inhibition at 1000 µM (DLD-1 cells) [%] | inhibition at 2500 µM (DLD-1 cells) [%] | inhibition at 5000 µM (DLD-1 cells) [%] | inhibition at 10000 µM (DLD-1 cells) [%] | significance of cell growth inhibition (in words) (DLD-1 cells; final concentration of 5 or 10 mM, cell line not specified) | effect on cell growth (in words) (HT-29 cells) | increase of the reporter gene activity (PPARγ activity) (PPARγ; 1 mM) [fold] | effect on cell growth at high doses (in words) (DLD-1 cells) | increase of the reporter gene activity (PPARγ activity) (PPARγ; 30 mM, positive control) [fold]
Nc1cccc(CC(O)C(=O)O)c1 (racemic) [Compound 20, (±)-2-hydroxy-3-(3′-aminophenyl)-propanoic acid] | marked anti-proliferative effect in a dose-dependent fashion | marked anti-proliferative effect in a dose-dependent fashion | 4.3 | 12.8 | 16.2 | 25.6 | 47 | significantly inhibit cell growth | marked anti-proliferative effect in a dose-dependent fashion | – | – | –
COC(Cc1cccc(N)c1)C(=O)O (racemic) [Compound 35, (±)-2-methoxy-3-(3′-aminophenyl)-propionic acid] | – | no inhibition in cell growth | 0 | 3.2 | 1.6 | 6.4 | 4.8 | – | – | 2.64±0.40 | – | –
CCOC(Cc1ccc(N)cc1)C(=O)O (racemic) [Compound 39, (±)-2-ethoxy 3-(4′-aminophenyl)-propionic acid] | – | – | 1.6 | 3.3 | 8.2 | 11.5 | 12.8 | – | – | 2.73±0.31 | slightly reduced the cell growth | –
Nc1ccc(O)c(C(=O)O)c1 [Compound 5-ASA, 5-amino salicylic acid, reference compound] | – | – | – | – | – | – | – | – | – | – | – | 2.8±0.7
COC(Cc1ccc(N)cc1)C(=O)O (racemic) [Compound 34, (±)-2-methoxy-3-(4′-aminophenyl)-propionic acid] | – | – | 0 | 3.6 | 1.8 | 3.6 | 15.1 | – | – | 4.8±0.71 | slightly reduced the cell growth | –
CCOC(Cc1cccc(N)c1)C(=O)O (racemic) [Compound 40, (±)-2-ethoxy-3-(3′-aminophenyl)-propanoic acid] | – | no inhibition in cell growth | 2 | 0 | 0 | 0 | 2.7 | – | – | 3.4±0.97 | – | –
